Reference: patent publication US9303015B2, “Heteroaryl linked quinolinyl modulators of RORγt” (Janssen Pharmaceutica NV, priority 2012, dated 2016)
Where a name gives a salt, the structure may show the parent alone.

Target: human RORγt LBD (Homo sapiens (Human), UniProt P51449)
Assay: RORγt reporter assay (GAL4-RORγt LBD luciferase, HEK293T cells)
Format: cell-based
Details: 6 μM, HEK293T cells
From the text: A reporter assay was used to test functional activity of RORγt modulatory compounds on transcriptional activation driven by the RORγt LBD. Cells used in the assay were co-transfected with two constructs. The first construct, pBIND-RORγt LBD, contained the wild type human RORγt LBD fused to the DNA binding domain of the GAL4 protein. The second construct, pGL4.31 (Promega Cat no. C935A), contained multiple GAL4 responsive DNA elements upstream of firefly luciferase. […] The mutant construct was called pBIND-RORγt-AF2. […] The pBIND vector contains the GAL4 DNA Binding Domain (GAL4 DBD) and the renilla luciferase gene under control of the SV40 promoter. Renilla luciferase expression serves as a control for transfection efficiency and cell viability.
The reporter assay was performed by transiently transfecting HEK293T cells with 5 μg of pBIND-RORγt LBD or pBIND-RORγt LBD-AF2 and 5 μg pGL4.31 (Promega Cat no. C935A) using Fugene 6 (Invitrogen Cat no. E2691) at a 1:6 ratio of DNA: Fugene 6 in a T-75 flask in which cells were at least 80% confluent. Twenty four hours after bulk transfection, cells were plated into 96-well plates at 50,000 cells/well in phenol-red free DMEM containing 5% Lipid Reduced FCS and Pen/Strep. Six hours after plating, cells were treated with compounds for 24 hours. Media was removed and cells were lysed with 50 μL 1x Glo Lysis Buffer (Promega). Dual Glo Luciferase Reagent (50 μL/well) was then added and firefly luciferase luminescence was read on an Envision after a ten minute incubation. Finally, Stop and Glo reagent (50 μL/well) was added and renilla luciferase luminescence was read on an Envision after a ten minute incubation. To calculate the effect of compounds on RORγt activity, the ratio of firefly to renilla luciferase was determined and plotted against compound concentration. Agonist compounds increase RORγt-driven luciferase expression, and antagonist or inverse agonist compounds decrease luciferase expression.

Chain of human RORγt LBD (P51449 258-518): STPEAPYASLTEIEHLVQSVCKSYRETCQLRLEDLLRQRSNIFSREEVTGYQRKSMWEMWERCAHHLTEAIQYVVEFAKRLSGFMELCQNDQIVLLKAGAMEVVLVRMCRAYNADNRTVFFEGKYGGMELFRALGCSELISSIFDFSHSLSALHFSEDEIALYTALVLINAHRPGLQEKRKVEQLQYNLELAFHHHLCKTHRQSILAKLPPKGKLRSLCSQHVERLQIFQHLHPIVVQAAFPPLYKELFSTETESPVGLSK

| Structure (SMILES) | RORγt reporter Assay, % inhibition @ 6 μM |
| --- | --- |
| CCN(CC)c1nc2ccc(C(O)(c3ccc(Cl)cc3)c3cncn3C)cc2c(Cl)c1Oc1ccccc1 (single isomer, unassigned) [Example 3b, (4-Chloro-2-(diethylamino)-3-phenoxyquinolin-6-yl)(4-chlorophenyl)(1-methyl-1H-imidazol-5-yl)methanol] | 77% |
| CCOc1nc2ccc(C(O)(c3ccc(C(F)(F)F)nc3)c3cncn3C)cc2c(Cl)c1Oc1ccc(F)cc1 (single isomer, unassigned) [Example 14b, (4-Chloro-2-ethoxy-3-(4-fluorophenoxy)quinolin-6-yl)(1-methyl-1H-imidazol-5-yl)(6-(trifluoromethyl)pyridin-3-yl)methanol] | 69% |
| CCOc1nc2ccc(C(O)(c3ccc(C(F)(F)F)nc3)c3cncn3C)cc2c(Cl)c1Oc1ccc(F)cc1 (single isomer, unassigned) [Example 14c, (4-Chloro-2-ethoxy-3-(4-fluorophenoxy)quinolin-6-yl)(1-methyl-1H-imidazol-5-yl)(6-(trifluoromethyl)pyridin-3-yl)methanol] | 18% |
| COc1nc2ccc(C(O)(c3ccc(Cl)cc3)c3cncn3C)cc2c(Cl)c1Oc1ccccc1 (single isomer, unassigned) [Example 15c, (4-Chloro-2-methoxy-3-phenoxyquinolin-6-yl)(4-chlorophenyl)(1-methyl-1H-imidazol-5-yl)methanol] | 82% |
| CCOc1nc2ccc(C(O)(c3ccc(C(F)(F)F)nc3)c3cncn3C)cc2c(C(F)(F)F)c1Oc1ccc(Cl)cc1 (single isomer, unassigned) [Example 25c, (3-(4-Chlorophenoxy)-2-ethoxy-4-(trifluoromethyl)quinolin-6-yl)(1-methyl-1H-imidazol-5-yl)(6-(trifluoromethyl)pyridin-3-yl)methanol] | 67% |

Same assay, conditions: HEK293T cells, 24 hours compound treatment

| Structure (SMILES) | IC50 |
| --- | --- |
| Cn1cncc1C(O)(c1ccc(C(F)(F)F)nc1)c1ccc2nc(C#N)c(Oc3ccccc3)c(C#N)c2c1 (centres unmarked) [Example 22a, 6-(Hydroxy(1-methyl-1H-imidazol-5-yl)(6-(trifluoromethyl)pyridin-3-yl)methyl)-3-phenoxyquinoline-2,4-dicarbonitrile] | ~6 µM |

Same assay, conditions: HEK-293T, read-out: RORγt reporter Assay, % inhibition @ 6 μM, 6 μM, HEK293T cells

| Structure (SMILES) | inhibition at 6 µM |
| --- | --- |
| COc1nc2ccc(C(O)(c3ccc(Cl)cc3)c3cncn3C)cc2c(Cl)c1Oc1ccccc1 (single isomer, unassigned) [Example 15b, (4-Chloro-2-methoxy-3-phenoxyquinolin-6-yl)(4-chlorophenyl)(1-methyl-1H-imidazol-5-yl)methanol] | 86% |
| COc1ccc(C(O)(c2ccc3nc(Cl)c(Oc4ccccc4)c(Cl)c3c2)c2cncn2C)cn1 (centres unmarked) [Example 4, (2,4-Dichloro-3-phenoxyquinolin-6-yl)(6-methoxypyridin-3-yl)(1-methyl-1H-imidazol-5-yl)methanol] | 92% |
| CCN(CC)c1nc2ccc(C(O)(c3ccc(C(F)(F)F)nc3)c3cncn3C)cc2c(Cl)c1Oc1ccc(F)cc1 (centres unmarked) [Example 9a] | 97% |
| CCOc1nc2ccc(C(O)(c3ccc(OC)nc3)c3cncn3C)cc2c(Cl)c1Oc1ccccc1 (centres unmarked) [Example 10a, (4-Chloro-2-ethoxy-3-phenoxyquinolin-6-yl)(6-methoxypyridin-3-yl)(1-methyl-1H-imidazol-5-yl)methanol.TFA] | 95% |
| CCOc1nc2ccc(C(O)(c3ccc(C(F)(F)F)nc3)c3cncn3C)cc2c(Cl)c1Oc1ccc(F)cc1 (centres unmarked) [Example 14a, (4-Chloro-2-ethoxy-3-(4-fluorophenoxy)quinolin-6-yl)(1-methyl-1H-imidazol-5-yl)(6-(trifluoromethyl)pyridin-3-yl)methanol] | 55% |
| COc1nc2ccc(C(O)(c3ccc(Cl)cc3)c3cncn3C)cc2c(Cl)c1Oc1ccccc1 (centres unmarked) [Example 15a, (4-Chloro-2-methoxy-3-phenoxyquinolin-6-yl)(4-chlorophenyl)(1-methyl-1H-imidazol-5-yl)methanol] | 83% |
| COc1c(Oc2ccccc2)c(Cl)nc2ccc(C(O)(c3ccc(Cl)cc3)c3cncn3C)cc12 (centres unmarked) [Example 18, (2-Chloro-4-methoxy-3-phenoxyquinolin-6-yl)(4-chlorophenyl)(1-methyl-1H-imidazol-5-yl)methanol] | 88% |
| Cn1cncc1C(O)(c1ccc(C(F)(F)F)nc1)c1ccc2nc(C#N)c(Oc3ccccc3)c(Cl)c2c1 (centres unmarked) [Example 21, 4-Chloro-6-(hydroxy(1-methyl-1H-imidazol-5-yl)(6-(trifluoromethyl)pyridin-3-yl)methyl)-3-phenoxyquinoline-2-carbonitrile.TFA] | 80% |
| Cn1cncc1C(O)(c1ccc(C(F)(F)F)nc1)c1ccc2nc(C#N)c(Oc3ccccc3)c(C#N)c2c1 (centres unmarked) [Example 22a, 6-(Hydroxy(1-methyl-1H-imidazol-5-yl)(6-(trifluoromethyl)pyridin-3-yl)methyl)-3-phenoxyquinoline-2,4-dicarbonitrile] | 55% |
| Cn1cncc1C(O)(c1ccc(Cl)cc1)c1ccc2nc(C#N)c(Oc3ccc(F)cc3)c(Cl)c2c1 (centres unmarked) [Example 23, 4-Chloro-6-((4-chlorophenyl)(hydroxy)(1-methyl-1H-imidazol-5-yl)methyl)-3-(4-fluorophenoxy)quinoline-2-carbonitrile.TFA] | 80% |
| Cn1cncc1C(O)(c1ccc(C(F)(F)F)nc1)c1ccc2nc(C#N)c(Oc3ccc(Cl)cc3)c(C(F)(F)F)c2c1 (centres unmarked) [Example 24, 3-(4-Chlorophenoxy)-6-(hydroxy(1-methyl-1H-imidazol-5-yl)(6-(trifluoromethyl)pyridin-3-yl)methyl)-4-(trifluoromethyl)quinoline-2-carbonitrile] | 55% |
| CCOc1nc2ccc(C(O)(c3ccc(C(F)(F)F)nc3)c3cncn3C)cc2c(C(F)(F)F)c1Oc1ccc(Cl)cc1 (centres unmarked) [Example 25a, (3-(4-Chlorophenoxy)-2-ethoxy-4-(trifluoromethyl)quinolin-6-yl)(1-methyl-1H-imidazol-5-yl)(6-(trifluoromethyl)pyridin-3-yl)methanol] | 75% |
| CCN(CC)c1nc2ccc(C(O)(c3ccc(Cl)cc3)c3cncn3C)cc2c(C(F)(F)F)c1Oc1ccccc1 (centres unmarked) [Example 29, (4-Chlorophenyl)(2-(diethylamino)-3-phenoxy-4-(trifluoromethyl)quinolin-6-yl)(1-methyl-1H-imidazol-5-yl)methanol.TFA] | 93% |
| Cn1cncc1C(O)(c1ccc(Cl)cc1)c1ccc2nc(N3CCC3)c(Oc3ccc(C#N)cc3)c(Cl)c2c1 (centres unmarked) [Example 32a, 4-((2-(Azetidin-1-yl)-4-chloro-6-((4-chlorophenyl)(hydroxyl)(1-methyl-1H-imidazol-5-yl)methyl)quinolin-3-yl)oxy)benzonitrile] | 102% |
| COCCN(C)c1nc2ccc(C(O)(c3ccc(C(F)(F)F)nc3)c3cncn3C)cc2c(Cl)c1Oc1ccccc1 (centres unmarked) [Example 34, (4-Chloro-2-((2-methoxyethyl)(methyl)amino)-3-phenxoyquinolin-6-yl)(1-methyl-1H-imidazol-5-yl)(6-(trifluoromethyl)pyridin-3-yl)methanol.TFA] | 95% |
| CCN(CC)c1nc2ccc(C(O)(c3ccc(Cl)cc3)c3cncn3C)cc2c(Cl)c1N(C(=O)OC(C)(C)C)c1ccccc1 (centres unmarked) [Example 44, tert-Butyl (4-chloro-6-((4-chlorophenyl)(hydroxyl)(1-methyl-1H-imidazol-5-yl)methyl)-2-(diethylamino)quinolin-3-yl)(phenyl)carbamate.TFA] | 62% |
| Cn1cncc1C(O)(c1ccc(C(F)(F)F)nc1)c1ccc2nc(Cl)c(Oc3ccc(Cl)cc3)c(C(F)(F)F)c2c1 (centres unmarked) [Example 46, (2-Chloro-3-(4-chlorophenoxy)-4-(trifluoromethyl)quinolin-6-yl)(1-methyl-1H-imidazol-5-yl)(6-(trifluoromethyl)pyridin-3-yl)methanol] | 39% |
